Data set [1] deals with PKC. To be noted: cited from earlier work.
The conditions of data set [2]: cited from earlier work.
Data set [3] addresses T1, PKCα (Homo sapiens, UniProt P17252). The experiment in a line: Activation of purified PKC isozymes, radiometric: PKC-α. The class given is biochemical. As to the method:
(§1) To measure PKC activity, 10 μg of protein from either cytosol or membrane was incubated for 15 min at 37° C. in the presence of 10 μM histones, 4.89 mM CaCl2, 1.2 μg/μl phosphatidyl-L-serine, 0.18 μg/μl 1,2-dioctanoyl-sn-glycerol, 10 mM MgCl2, 20 mM HEPES (pH 7.4), 0.8 mM EDTA, 4 mM EGTA, 4% glycerol, 8 μg/ml aprotinin, 8 μg/ml leupeptin, 2 mM benzamidine, and 0.5 μCi of [γ-^32P]ATP. [^32P]Phosphoprotein formation was measured by adsorption onto phosphocellulose as described previously. See Nelson et al. (2009) J Biol Chem 284, 34514-34521. For measurements of activation by RA, PKC activity was measured in the absence of diacylglycerol (DAG) and phosphatidylserine, as described by Nelson et al. (2009) J Biol Chem 284, 34514-34521. PKC-δ and PKC-ε were measured in the absence of added EGTA and CaCl^2, as described by Kanno et al. (2006) J Lipid Res 47, 1146-1156. The enzyme was provided as a purified isozyme for in vitro experiments.
(§2) To measure PKC, 10 μl of cell homogenate or purified PKC isoform was incubated for 15 min at 37° C. in the presence of 10 μM histones, 4.89 mM CaCl2, 1.2 μg/μl phosphatidyl-L-serine, 0.18 μg/μl 1,2-dioctanoyl-sn-glycerol, 10 mM MgCl2, 20 mM HEPES (pH 7.4), 0.8 mM EDTA, 4 mM EGTA, 4% glycerol, 8 μg/ml aprotinin, 8 μg/ml leupeptin, and 2 mM benzamidine. [γ32P]ATP (0.5 μCi) was added and 32P-phosphoprotein formation was measured by adsorption onto phosphocellulose as described previously. See Nelson et al., J. Neurochemistry, 1995, 65: 2350-2357.
(§3) PKC activity of each compound was measured in the absence of diacylglycerol and phosphatidylserine and PKC-δ and PKC-ε were measured in the absence of added EGTA and CaCl2, as described by Kanno et al., J. Lipid Res., 2006, 47: 1146-1156. Low concentrations of Ca^2+ were needed because high Ca^2+ can interact with the PKC phosphatidylserine binding site and prevents activation. […] To determine their PKC isoform specificity, the compounds were pre-incubated with purified isoforms of PKC for five minutes and the PKC activity was measured radiometrically.
(§4) The activation and PKC isozyme specificity of DCPLA-ethyl ester was measured following the procedures in Example 1(B) and (C), except that 9 ng of the purified isozyme was used and it was pre-incubated for 5 minutes at room temperature (FIG. 3). PKC-ε activation by DCPLA-tert-butyl ester and DCPLA-retinyl ester was measured in the same manner as DCPLA-ethyl ester (FIG. 3).

The target of data set [4] is T2, PKC-ε (Homo sapiens, UniProt Q02156).
T2 sequence (Q02156 1-737): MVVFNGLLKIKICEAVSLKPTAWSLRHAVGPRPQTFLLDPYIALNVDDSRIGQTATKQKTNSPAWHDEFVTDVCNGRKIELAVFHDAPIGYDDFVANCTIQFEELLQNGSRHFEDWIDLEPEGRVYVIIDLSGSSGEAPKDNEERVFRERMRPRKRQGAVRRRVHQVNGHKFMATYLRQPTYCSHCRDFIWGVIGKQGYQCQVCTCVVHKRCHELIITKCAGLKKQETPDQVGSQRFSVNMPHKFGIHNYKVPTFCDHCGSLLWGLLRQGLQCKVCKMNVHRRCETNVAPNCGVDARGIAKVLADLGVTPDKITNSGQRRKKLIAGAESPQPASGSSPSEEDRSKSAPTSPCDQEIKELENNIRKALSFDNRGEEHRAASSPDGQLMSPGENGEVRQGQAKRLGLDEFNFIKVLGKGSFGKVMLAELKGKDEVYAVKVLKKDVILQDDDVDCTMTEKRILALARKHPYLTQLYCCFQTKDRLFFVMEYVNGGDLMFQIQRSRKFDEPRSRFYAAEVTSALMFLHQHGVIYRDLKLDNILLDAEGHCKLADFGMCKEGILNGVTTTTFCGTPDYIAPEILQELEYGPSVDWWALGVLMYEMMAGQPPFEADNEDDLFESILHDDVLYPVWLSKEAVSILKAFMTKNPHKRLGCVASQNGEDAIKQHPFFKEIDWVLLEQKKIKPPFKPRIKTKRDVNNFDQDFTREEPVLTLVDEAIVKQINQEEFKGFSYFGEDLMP
The data set can be described thus: Activation of purified PKC isozymes, radiometric: PKC-ε. It is filed as biochemical. As to conditions: for Specificity ε/α: Activation of PKC-ε ÷ activation or inhibition of PKCα at 3 × EC50. As for the experimental part:
as §2, §3, §4
The EC50 values, PKC specificity, and activation for a select number of DCPLA esters was determined (see Table 1). EC50 values were determined by measuring the lowest concentration that activates by 50% of maximum activation. […] The specificity and activation of PKC by the various esters of DCPLA were calculated from the measurements of activation of PKC isozymes.

Data set [5] concerns the target PKC-δ (Homo sapiens, UniProt Q05655). The data set can be described thus: Activation of purified PKC isozymes, radiometric: PKC-δ. It is filed as biochemical. As for the experimental part: as §1, §2, §3
Data set [6] has as its system PKC. As to conditions: cited from earlier work. The source holds these as a separate data set.
The target in data set [7] is T3, PKC.
T3 construct: Ki
As to conditions: cited from earlier work.

Data set [8] deals with T1, PKCα. To be noted: cited from earlier work.
The test system of data set [9] is NCI 60 cell line screen. As to conditions: cited from earlier work.
The target of data set [10] is protein kinase C. As to conditions: (−)-enantiomer; read-out: EC50 (potency); cited from earlier work.
The test system of data set [11] is PKC-ε. The data set can be described thus: PKC-ε level in primary neurons (immunofluorescence, Western Blot). The class given is cell-based, rat. As to conditions: 5 μM inhibitor. As to the method: Cells were harvested in homogenizing buffer containing 10 mM Tris-Cl (pH 7.4), 1 mM PMSF (phenylmethylsulfonyl fluoride), 1 mM EGTA, 1 mM EDTA, 50 mM NaF, and 20 μM leupeptin and were lysed by sonication. The homogenate was centrifuged at 100,000×g for 15 min at 4° C. to obtain the cytosolic fraction (supernatant) and membrane (pellet). The pellet was resuspended in the homogenizing buffer by sonication. Protein concentration was measured using the Coomassie Plus (Bradford) Protein Assay kit (Pierce, USA). Following quantification, 20 μg of protein from each sample was subjected to SDS-PAGE analysis in 4-20% gradient Tris-Glycine gel (Invitrogen, USA). The separated protein was then transferred to nitrocellulose membrane. The membrane was blocked with BSA at room temperature for 15 min and was incubated with primary antibody over night at 4° C. After the incubation, it was washed three times with TBS-T (Tris Buffered saline-Tween 20) and further incubated with alkaline phosphatase conjugated secondary antibody (Jackson Immunoresearch Laboratories, USA) at 1:10,000 dilution for 45 min. The membrane was finally washed three times with TBS-T and developed using the 1-step NBT-BCIP substrate (Pierce, USA). Western Blot was imaged in the ImageQuant RT-ECL (GE Life Sciences, Piscataway, N.J.) and densitometric quantification was performed using the IMAL software (Blanchette Rockefeller Neurosciences Institute, Morgantown, W. Va.). For translocation assays, PKC activation was represented as the percentage of total protein in the membrane (membrane/cytosol+membrane).
Cells were grown in two chambered slides (Nunc, USA) at low density. For immunofluorescence staining, the cells were washed with PBS (pH 7.4) and fixed with 4% paraformaldehyde for 4 min. Following fixation, the cells were blocked and permeabilized with 5% serum and 0.3% Triton X 100 in 1×PBS for 30 min. […] Six individual fields at 63× oil lens magnification were analyzed for the mean fluorescence intensity (MFI) in each channel. […]

Data set [12] concerns primary rat hippocampal neurons. The experiment in a line: Neuroprotection against ASPD induced toxicity, MTT, primary neurons. To be noted: added with DCPLA-ME, 50 nM ASPD. It is filed as cell-based. As for the experimental part:
Viability of cells was measured by MTT assay. MTT (3-(4,5-Dimethylthiazol-2-yl)-2,5-diphenyltetrazolium bromide) is a tetrazolium salt that is cleaved to formazan by the succinate dehydrogenase, which is only active in viable cells. After solubilization of the formazan, the amount of dye can be quantified with a microplate reader at 570 nm along with a reference of 630 nm. For MTT assay, 5×104 primary rat hippocampal neurons from 18-day-old embryonic Sprague-Dawley rat brains were plated on each well of 24-well plates coated with poly-D-lysine. After treatment, the cells were washed with 1×PBS and were incubated with 200 μl of 1 mg/ml MTT solution (Sigma, USA) at 37° C. for 2 hr. Then the MTT-solution was removed and the cells were lysed with 200 μl isopropanol containing 0.04 M HCl and 160 mM NaOH for 10 min. Finally, the reading was done at 570 nm and 630 nm. All the samples were done in triplicates and the data was represented as the percentage of control.
All studies used 50 nM ASPDs. The viability of the cells were measured by the MTT assay.

Read-outs that look alike come from different tables or passages of the source.

Sequence of PKC-δ (Q05655 whole entry): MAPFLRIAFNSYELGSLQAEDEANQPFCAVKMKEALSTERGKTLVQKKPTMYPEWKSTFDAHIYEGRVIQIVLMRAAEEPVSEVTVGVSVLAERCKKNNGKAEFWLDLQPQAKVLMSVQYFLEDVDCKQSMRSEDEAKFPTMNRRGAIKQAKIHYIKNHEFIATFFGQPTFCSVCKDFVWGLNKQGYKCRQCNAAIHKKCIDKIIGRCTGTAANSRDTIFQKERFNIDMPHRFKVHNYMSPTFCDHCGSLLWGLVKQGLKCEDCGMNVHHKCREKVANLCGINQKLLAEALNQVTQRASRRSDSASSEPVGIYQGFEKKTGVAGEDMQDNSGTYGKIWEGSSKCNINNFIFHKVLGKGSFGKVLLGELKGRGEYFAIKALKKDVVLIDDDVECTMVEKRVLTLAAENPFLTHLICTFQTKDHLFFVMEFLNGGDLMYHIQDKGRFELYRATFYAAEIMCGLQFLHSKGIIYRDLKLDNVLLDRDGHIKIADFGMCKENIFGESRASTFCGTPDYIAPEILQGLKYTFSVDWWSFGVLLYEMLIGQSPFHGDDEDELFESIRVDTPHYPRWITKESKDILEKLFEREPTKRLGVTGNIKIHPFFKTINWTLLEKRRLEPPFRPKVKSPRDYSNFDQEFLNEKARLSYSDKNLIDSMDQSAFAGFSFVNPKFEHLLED

As to `CCCCCCCC(=O)O[C@H]1/C(=C/C(=O)OC)C[C@H]2C[C@H](CO)OC(=O)C[C@H](O)C[C@@H]3CCC[C@H](C[C@@H]4CCO[C@H](/C=C/C(C)(C)[C@]1(O)O2)O4)O3` [Analog 1], the “affinity for PKC (in words)” value in [1] is recorded as “highest affinity for PKC”. In addition, in data set [1] (read-out: PKC Affin), the Ki is 0.25 nM.

Regarding `CCC/C=C/C=C/C(=O)O[C@H]1/C(=C/C(=O)OC)C[C@H]2C[C@H]([C@@H](C)O)OC(=O)C[C@H](O)C[C@@H]3C[C@H](OC(C)=O)C(C)(C)[C@](O)(C[C@@H]4C/C(=C/C(=O)OC)C[C@H](/C=C/C(C)(C)[C@]1(O)O2)O4)O3` [Bryostatin-1], the “time detectable in the blood” value in data set [2] (after a single injection) was 14 days. For the same compound, the “share of initial dose in the blood” value in data set [2] (at 100 hrs, intravenous injection) was 1%. Also, the “t1/2 in the blood stream” value in data set [2] (blood) is 1 h.

`CCCCCC1CC1CC1CC1CCCCCCCC(=O)OC1CC[C@@]2(C)C(=CC[C@H]3[C@H]4CC[C@H]([C@H](C)CCCC(C)C)[C@@]4(C)CC[C@H]32)C1` (stereo partly drawn) [DCPLA-cholesteryl ester]: the “effect on PKC-α (in words)” value in [3] is on record as “inhibited at all concentrations”. In data set [4], the “PKC-ε activation at peak” value is on record as “up to 130 % of control”, the “concentration of maximal activation” value was determined as 0.01 nM and the “Specificity ε/α” value is 0.94. In data set [4] (concentration of maximal activity), the “potency relative to Bryostatin-1” value was found to be 18 ×. For the same compound, in [5], the PKC-δ activation result is recorded as “up to 130 % of control”.

Turning to `CCCCCC1CC1CC1CC1CCCCCCCC(=O)OC(C)C` (stereo not drawn) [DCPLA-isopropyl ester], in data set [3], the PKC-α activation result is listed as “up to 40 % of control”. Besides, in data set [4], the “PKC-ε activation at peak” value was “up to 40 % of control”, the “concentration of maximal activation” value is recorded as 10 nM and the “Specificity ε/α” value is on record as 1.4. Besides, in data set [5], the “effect on PKC-δ (in words)” value was “only slightly activated”.

For `CCC1CC1CC1CC1CC1CC1CC1CC1CC1CC1CC1CC1CCC(=O)O` (stereo not drawn) [DHA-CP6], the effective concentration in data set [6] is reported as 10 nM.

`CC1=C[C@]23C(=O)[C@@H](C=C(COC(=O)c4ccccc4)[C@@H](O)[C@]2(O)[C@H]1OC(=O)c1ccccc1)[C@H]1[C@@H](C[C@H]3C)C1(C)C` [Ingenol 3,20-dibenzoate]: the Ki in [7] is 240 nM.

Take `CC1=CC[C@H](C)C(C)(C)[C@@H]1/C=C/C(C)=C/CC[C@@]1(CO)[C@H](CCCO)/C(=C(/C)C=O)CC[C@]1(C)O` [Iripallidal]: in [8], the Ki was 75.6 nM. Besides, in data set [9], the “GI50 (concentration required to inhibit growth by 50%)” value is given as “micromolar to nanomolar range”.

On to `CCCCCCCC(=O)OC1C(=CC(=O)OC)CC2CC(CO)OC(=O)CC(O)CCOC(CCCc3ccc(Br)cc3)CC3CCOC(C=CC(C)(C)C1(O)O2)O3` (stereo not drawn) [bryolog 5], for which, in data set [1] (A-ring bryologs, read-out: affinity for PKC), the Ki is 1.9 nM.

As for `CCCCCCCCc1ccc2c3c(c[nH]c13)C[C@@H](CO)NC(=O)[C@H](C(C)C)N2C` [octylindolactam V, Octylindolactam V], the EC50 (in general, the concentration at which the effect is half-maximal) in data set [10] is 29 nM.

For the compound EAVSLKPT, the “effect of inhibitor on PKC-ε protection by DCPLA-ME” value in [11] is recorded as “completely blocked”. In addition, the “effect of inhibitor peptide on neuroprotection by DCPLA-ME” value in [12] is reported as “blocked DCPLA-ME's protective effect”.

The record behind these values is patent US10821079B2, “PKC activators and combinations thereof” (Cognitive Research Enterprises, Inc., priority 2011, dated 2020).
